From ChEMBL document CHEMBL3865840, “Minimizing CYP2C9 Inhibition of Exposed-Pyridine NAMPT (Nicotinamide Phosphoribosyltransferase) Inhibitors” (J Med Chem, 2016)
Each block holds one compound with its values, some of them ahead of it. The source made the active and inactive calls. No cut-off for these calls is given here.

Columns and labels:
[1] = molecular target: T1, Cytochrome P450 2C9 (Homo sapiens, UniProt P11712)
[2] = molecular target: T2, Cytochrome P450 2D6 (Homo sapiens, UniProt P10635)
[3] = molecular target: T3, Cytochrome P450 1A2 (Homo sapiens, UniProt P05177)
T3 sequence (P05177 whole entry): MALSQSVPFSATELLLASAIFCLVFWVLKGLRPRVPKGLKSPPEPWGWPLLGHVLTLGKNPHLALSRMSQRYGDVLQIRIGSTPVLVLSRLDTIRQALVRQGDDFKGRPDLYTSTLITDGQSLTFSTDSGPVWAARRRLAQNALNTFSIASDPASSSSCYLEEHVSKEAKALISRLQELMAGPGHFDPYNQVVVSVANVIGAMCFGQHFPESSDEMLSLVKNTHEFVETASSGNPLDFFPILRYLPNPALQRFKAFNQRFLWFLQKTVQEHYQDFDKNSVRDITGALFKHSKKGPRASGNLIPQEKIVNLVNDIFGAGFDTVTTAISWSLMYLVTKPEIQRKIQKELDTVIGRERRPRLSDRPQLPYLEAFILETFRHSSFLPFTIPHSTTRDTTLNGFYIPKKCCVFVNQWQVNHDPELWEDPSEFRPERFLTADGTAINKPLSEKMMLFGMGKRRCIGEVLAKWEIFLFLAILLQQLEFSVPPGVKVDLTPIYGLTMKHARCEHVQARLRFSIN

[4] = molecular target: T1, Cytochrome P450 2C9; remark: listed apart in the source
[5] = molecular target: T4, Cytochrome P450 3A4 (Homo sapiens, UniProt P08684); experiment: Inhibition of CYP3A4 in human liver microsomes using testosterone as substrate in presence of NADPH by LC-MS/MS analysis; assay type: ADME
[6] = molecular target: T4, Cytochrome P450 3A4
[7] = molecular target: T5, Cytochrome P450 2C19 (Homo sapiens, UniProt P33261)
[8] = molecular target: T3, Cytochrome P450 1A2; experiment: Time dependent inhibition of CYP1A2 in human liver microsomes assessed as substrate AUC shift; assay type: ADME; design: scale not given: the % may be the effect or the level left
[9] = Cmax in Sprague-Dawley rat at 5 mg/kg, po; assay type: ADME, organism-based; design: dose 5 mg/kg, route oral; conditions: in vivo
[10] = Volume of distribution at steady state in Sprague-Dawley rat at 1 mg/kg, iv; assay type: ADME, organism-based; conditions: in vivo, read-out: Vdss
[11] = molecular target: T2, Cytochrome P450 2D6; experiment: Time dependent inhibition of CYP2D6 in human liver microsomes assessed as substrate AUC shift; assay type: ADME; design: scale not given: the % may be the effect or the level left
[12] = Oral bioavailability in Sprague-Dawley rat at 5 mg/kg; assay type: ADME, organism-based; conditions: in vivo
[13] = Volume of distribution at steady state in Beagle dog at 0.5 mg/kg, iv; assay type: ADME, organism-based, Canis lupus familiaris; conditions: in vivo, read-out: Vdss
[14] = molecular target: T4, Cytochrome P450 3A4; experiment: Reversible inhibition of CYP3A4 in human liver microsomes using testosterone as substrate in presence of NADPH by LC-MS/MS analysis; assay type: ADME
[15] = Protein binding in cynomolgus monkey plasma at 5 uM after 4 hrs by rapid equilibrium dialysis based LC-MS/MS analysis; assay type: ADME, cell-free, Macaca fascicularis; conditions: read-out: PPB (converted)
[16] = molecular target: T4, Cytochrome P450 3A4; experiment: Time dependent inhibition of CYP3A4 in human liver microsomes assessed as substrate AUC shift using testosterone as substrate; assay type: ADME; design: scale not given: the % may be the effect or the level left
[17] = Cmax in Beagle dog at 3 mg/kg, po; assay type: ADME, organism-based, Canis lupus familiaris; design: dose 3 mg/kg, route oral; conditions: in vivo
[18] = molecular target: T1, Cytochrome P450 2C9; experiment: Time dependent inhibition of CYP2C9 in human liver microsomes assessed as substrate AUC shift; assay type: ADME; design: scale not given: the % may be the effect or the level left
[19] = Thermodynamic solubility of the compound in PBS at pH 7.4 after 24 hrs by liquid chromatography-chemiluminescence nitrogen detection assay; assay type: physicochemical; conditions: read-out: Therm_solubility
[20] = Protein binding in rat plasma at 5 uM after 4 hrs by rapid equilibrium dialysis based LC-MS/MS analysis; assay type: ADME, cell-free; conditions: read-out: PPB (converted)
[21] = Protein binding in human plasma at 5 uM after 4 hrs by rapid equilibrium dialysis based LC-MS/MS analysis; assay type: ADME, cell-free; conditions: read-out: PPB (converted)
[22] = molecular target: T4, Cytochrome P450 3A4; experiment: Time dependent inhibition of CYP3A4 in human liver microsomes assessed as substrate AUC shift using midazolam as substrate; assay type: ADME; design: scale not given: the % may be the effect or the level left
[23] = Time at which plasma concentration stays above plasma protein binding corrected human HT1080 cells IC50 in nude NCR mouse at 25 mg/kg, po bid administered via gavage; assay type: ADME, organism-based, HT-1080; conditions: in vivo
[24] = molecular target: T2, Cytochrome P450 2D6; experiment: Reversible inhibition of CYP2D6 in human liver microsomes using […] as substrate in presence of NADPH by LC-MS/MS analysis; assay type: ADME
[25] = Octanol-aqueous phosphate buffer distribution coefficient, log D of the compound at pH 7.4 after 1 hr by LC/MS/MS analysis; assay type: physicochemical
[26] = Protein binding in dog plasma at 5 uM after 4 hrs by rapid equilibrium dialysis based LC-MS/MS analysis; assay type: ADME, cell-free, Canis lupus familiaris; conditions: read-out: PPB (converted)
[27] = Half life in Sprague-Dawley rat at 1 mg/kg, iv; assay type: ADME, organism-based; conditions: in vivo
[28] = Apparent permeability from apical to basolateral side in MDCK cells at 10 uM by LC/MS/MS analysis; assay type: ADME, cell-based, Canis lupus familiaris; conditions: dog
[29] = Oral bioavailability in Beagle dog at 3 mg/kg; assay type: ADME, organism-based, Canis lupus familiaris; conditions: in vivo
[30] = AUC in Beagle dog at 3 mg/kg, po; assay type: ADME, organism-based, Canis lupus familiaris; conditions: in vivo
[31] = molecular target: T4, Cytochrome P450 3A4; experiment: Reversible inhibition of CYP3A4 in human liver microsomes using midazolam as substrate in presence of NADPH by LC-MS/MS analysis; assay type: ADME
[32] = Half life in Beagle dog at 0.5 mg/kg, iv; assay type: ADME, organism-based, Canis lupus familiaris; conditions: in vivo
[33] = molecular target: T5, Cytochrome P450 2C19; experiment: Reversible inhibition of CYP2C19 in human liver microsomes using […] as substrate in presence of NADPH by LC-MS/MS analysis; assay type: ADME
[34] = Clearance in Sprague-Dawley rat at 1 mg/kg, iv; assay type: ADME, organism-based; conditions: in vivo
[35] = molecular target: T5, Cytochrome P450 2C19; experiment: Time dependent inhibition of CYP2C19 in human liver microsomes assessed as substrate AUC shift; assay type: ADME; design: scale not given: the % may be the effect or the level left
[36] = molecular target: T3, Cytochrome P450 1A2; experiment: Reversible inhibition of CYP1A2 in human liver microsomes using […] as substrate in presence of NADPH by LC-MS/MS analysis; assay type: ADME
[37] = test system: Mus musculus; experiment: Increase in body weight in human HT1080 tumor bearing nude NCR mouse cachexia model at 25 to 50 mg/kg administered via oral gavage twice per day for 5 consecutive days measured up to 20 days; assay type: functional, organism-based
[38] = test system: Mus musculus; experiment: Toxicity in nude NCR mouse xenografted with human HT1080 cells assessed as change in body weight at 25 to 50 mg/kg administered via oral gavage twice per day for 5 consecutive days measured up to 20 days; assay type: organism-based, HT-1080; conditions: in vivo, 480 h
[39] = Clearance in Beagle dog at 0.5 mg/kg, iv; assay type: ADME, organism-based, Canis lupus familiaris; conditions: in vivo
[40] = Protein binding in mouse plasma at 5 uM after 4 hrs by rapid equilibrium dialysis based LC-MS/MS analysis; assay type: ADME, cell-free; conditions: read-out: PPB (converted)
[41] = AUC in Sprague-Dawley rat at 5 mg/kg, po; assay type: ADME, organism-based; conditions: in vivo
[42] = Kinetic solubility of the compound in PBS at 200 uM at pH 7.4 after 24 hrs by liquid chromatography-chemiluminescence nitrogen detection assay; assay type: physicochemical; conditions: read-out: Kinetic_solubility
[43] = test system: HT-1080; experiment: Antitumor activity against human HT1080 cells xenografted in nude NCR mouse assessed as tumor growth inhibition at 25 to 50 mg/kg administered via oral gavage twice per day for 5 consecutive days measured up to 20 days; assay type: functional, organism-based
[44] = Apparent permeability from basolateral to apical side in MDCK cells at 10 uM by LC/MS/MS analysis; assay type: ADME, cell-based, Canis lupus familiaris; conditions: dog

T4 sequence (P08684 whole entry): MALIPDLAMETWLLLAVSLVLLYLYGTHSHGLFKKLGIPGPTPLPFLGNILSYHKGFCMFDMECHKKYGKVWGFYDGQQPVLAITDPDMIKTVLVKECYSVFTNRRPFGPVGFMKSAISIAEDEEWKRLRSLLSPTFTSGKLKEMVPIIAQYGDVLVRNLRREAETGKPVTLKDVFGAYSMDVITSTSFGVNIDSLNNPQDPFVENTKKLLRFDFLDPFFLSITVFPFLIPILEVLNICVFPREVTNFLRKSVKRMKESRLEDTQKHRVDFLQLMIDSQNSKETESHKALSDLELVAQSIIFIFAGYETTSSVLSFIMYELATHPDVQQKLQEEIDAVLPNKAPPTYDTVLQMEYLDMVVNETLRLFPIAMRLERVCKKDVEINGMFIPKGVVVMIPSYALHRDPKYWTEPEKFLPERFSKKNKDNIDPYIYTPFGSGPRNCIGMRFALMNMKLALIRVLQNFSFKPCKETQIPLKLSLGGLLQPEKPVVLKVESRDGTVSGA
T2 sequence (P10635 whole entry): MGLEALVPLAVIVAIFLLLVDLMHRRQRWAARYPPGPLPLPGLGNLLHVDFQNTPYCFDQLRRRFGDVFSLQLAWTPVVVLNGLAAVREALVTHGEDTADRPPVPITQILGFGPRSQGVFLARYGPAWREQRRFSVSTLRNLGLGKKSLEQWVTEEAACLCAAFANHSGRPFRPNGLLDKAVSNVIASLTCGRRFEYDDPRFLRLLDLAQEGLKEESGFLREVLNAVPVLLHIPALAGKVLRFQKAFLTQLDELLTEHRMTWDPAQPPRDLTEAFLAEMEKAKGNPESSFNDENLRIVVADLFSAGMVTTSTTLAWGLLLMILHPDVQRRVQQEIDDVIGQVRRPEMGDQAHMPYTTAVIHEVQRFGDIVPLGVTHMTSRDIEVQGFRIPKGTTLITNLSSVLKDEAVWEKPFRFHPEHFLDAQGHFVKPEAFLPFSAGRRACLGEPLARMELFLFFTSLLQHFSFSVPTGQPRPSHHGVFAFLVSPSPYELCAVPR
T1 sequence (P11712 whole entry): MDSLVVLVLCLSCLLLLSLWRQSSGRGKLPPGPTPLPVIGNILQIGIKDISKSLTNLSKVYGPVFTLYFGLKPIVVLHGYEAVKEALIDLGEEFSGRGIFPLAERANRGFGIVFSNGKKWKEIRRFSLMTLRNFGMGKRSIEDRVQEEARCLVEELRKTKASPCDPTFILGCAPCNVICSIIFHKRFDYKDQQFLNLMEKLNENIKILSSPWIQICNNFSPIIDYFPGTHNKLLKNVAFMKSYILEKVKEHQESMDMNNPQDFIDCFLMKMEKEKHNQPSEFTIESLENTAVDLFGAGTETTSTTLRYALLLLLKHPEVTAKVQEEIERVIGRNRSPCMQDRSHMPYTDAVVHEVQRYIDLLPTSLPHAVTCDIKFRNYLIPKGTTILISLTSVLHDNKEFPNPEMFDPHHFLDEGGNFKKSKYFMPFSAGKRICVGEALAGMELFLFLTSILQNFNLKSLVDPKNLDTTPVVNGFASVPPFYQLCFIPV
T5 sequence (P33261 whole entry): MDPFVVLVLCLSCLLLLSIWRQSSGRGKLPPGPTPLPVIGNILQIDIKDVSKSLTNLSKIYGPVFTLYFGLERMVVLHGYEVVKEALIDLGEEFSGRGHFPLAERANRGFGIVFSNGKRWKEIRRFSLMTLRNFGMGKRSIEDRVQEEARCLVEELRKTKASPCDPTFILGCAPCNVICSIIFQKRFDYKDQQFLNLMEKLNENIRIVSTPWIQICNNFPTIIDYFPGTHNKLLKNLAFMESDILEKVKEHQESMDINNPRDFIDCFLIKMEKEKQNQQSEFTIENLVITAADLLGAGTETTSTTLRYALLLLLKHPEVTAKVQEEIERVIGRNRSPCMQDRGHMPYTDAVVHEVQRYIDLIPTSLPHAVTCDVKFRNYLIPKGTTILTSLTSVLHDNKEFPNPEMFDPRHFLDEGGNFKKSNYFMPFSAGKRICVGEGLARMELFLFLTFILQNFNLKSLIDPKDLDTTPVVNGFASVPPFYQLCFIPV

IC50 [1]: 70 nM
IC50 [2]: > 10 µM
IC50 [3]: > 10 µM
IC50 [4]: 4.8 µM
IC50 [5]: 7.9 µM
IC50 [6]: 9 µM
IC50 [7]: 6.5 µM
Structure (SMILES): O=C(NCc1ccc(S(=O)(=O)c2cccc(C(F)(F)F)c2)cc1)c1cnc2[nH]ncc2c1

IC50 [1]: > 10000 nM
Activity [8]: < 15%
Cmax [9]: 640 nM
Vd [10]: 9 L/kg
Activity [11]: < 15%
bioavailability [12]: 29%
Vd [13]: 0.8 L/kg
IC50 [14]: > 10 µM
fraction unbound at 4 h, 5 µM [15]: 0.46
Activity [16]: < 15%
Cmax [17]: 4.8 µM
Activity [18]: < 15%
solubility thermodynamic at 24 h [19]: > 6 mM
fraction unbound at 4 h, 5 µM [20]: 0.44
fraction unbound at 4 h, 5 µM [21]: 0.44
Activity [22]: < 15%
Time [23]: 20 h
IC50 [24]: > 10 µM
logD at 1 h [25]: 1.2
fraction unbound at 4 h, 5 µM [26]: 0.34
half-life [27]: 84 min
Papp A→B at 10 µM [28]: 8.8 ×10⁻⁶ cm/s
bioavailability [29]: 86%
AUC [30]: 10.5 µM·h
IC50 [31]: > 10 µM
half-life [32]: 72 min
IC50 [33]: > 10 µM
clearance [34]: 110 mL/min/kg
Activity [35]: < 15%
IC50 [36]: > 10 µM
clearance [39]: 10.8 mL/min/kg
fraction unbound at 4 h, 5 µM [40]: 0.47
AUC [41]: 0.55 µM·h
solubility kinetic at 24 h, 200 µM [42]: > 100 µM
Papp B→A at 10 µM [44]: 12 ×10⁻⁶ cm/s
Structure (SMILES): CC1(OC(=O)N2CCC3(CC2)C[C@@H]3CNC(=O)N2Cc3ccncc3C2)COC1
Activity [37]: Active
Activity [38]: Non-Toxic
TGI [43]: Active
